Source: US6541463B1, “Inhibitors of type 5 and type 3 17β-hydroxysteroid dehydrogenase and methods for their use” (Endorecherche, Inc., priority 1998, dated 2003)

How the values were obtained:
progesterone receptor = assay: Progesterone receptor assay: inhibition of [3H]R5020 binding, uterine cytosol; parameters: species or system rat
Procedure: The manner in which the percentage of inhibition is determined is described in “Other Tests; E-Progesterone Receptor Assay”. Lower numbers are desirable.
[17α-methyl-^3H]-promegestone (R5020) (84 Ci/mmol) and the corresponding unlabeled compound were purchased from New England Nuclear (Lachine, Québec, Canada). All other chemicals were of analytical grade.
Stock solutions of the unlabeled steroids were kept at 4° C. in ethanol. The desired steroid solutions were then prepared by appropriate dilution in buffer B (10 mM Tris-HCl, 1.5 mM EDTA, 10 mM α-monothioglycerol, pH 7.4) containing 30% ethanol.
Female Sprague-Dawley rats weighing 200-300 g were obtained from Charles-River Inc. (St-Constant, Québec, Canada). The rats were gonadectomized under general anesthesia (Isoflurane) and killed by cervical dislocation 24 hours later. The uteri are rapidly removed, dissected free from adhering tissue and frozen on dry-ice. Tissues were kept at −80° C. until use.
All procedures were performed at 4° C. Tissues were pulverized frozen in dry ice with a Thermovac pulverizer. The samples were then homogenized in 10 vol (w/v) of buffer A (25 mM Tris-HCl, 1.5 mM EDTA, 10 mM α-monothioglycerol, 10% glycerol, 10 mM sodium molybdate, pH 7.4) using a Polytron PT-10 homogenizer (Brinkmann Instruments, Canada) at a setting of 5 for two periods of 10 sec, with intervals of 10 sec for cooling. The homogenate was then centrifuged at 105,000×g for 90 min. The supernatant was used immediately for assay.
Progesterone binding was measured using the dextran-coated charcoal adsorption technique. […] Each concentration was done in triplicate. Assay was ended with 300 μl of DCC (1% Norit A and 0.1% Dextran T-70 in Buffer B). After 10 min of incubation, tubes were centrifuged at 2,000×g for 10 min. and decanted in vials with 6 ml of BCS liquid scintillation (New England Nuclear, Dupont). The radioactivity was measured in a Beckman counter at a counting efficiency of 35%.

ZR-75-1 cells = assay: Estrogenic activity: stimulation of proliferation of ZR-75-1 cells; type: cell-based, human
Procedure: […] The manner in which the stimulation is determined is described in “Other Tests; C-Estrogenic/Antiestrogenic activity” Lower numbers are desirable. ND means that a determination was not done.
Estrogenic/antiestrogenic activity of some preferred compounds has been measured using the […] human breast cancer cell line as described in more detail below.
All media and medium supplments were purchased from Sigma. Cells were subcultured weekly by treatment with a pancreatic solution containing EDTA (0.2 g/L). The cell cultures used for the experiments herein describied were between passages 89 and 94.
Cells in their logarithmic growth phase were harvested, briefly centrifuged, and resuspended in RPMI 1640. Cells were then plated in triplicate in LIMBRO 24-well plastic culture plates (2 cm^2/well). Since plating density influences the effect of hormones on ZR-75-1 cell growth, cells were plated at a density of 1×10^4 cells/well. […] Control cultures received the ethanol vehicle only. Cells were then allowed to grow at 37° C. for 10 days with medium changes (of identical composition) every 2 days.
After E2 and/or antiestrogen treatment, cells were harvested by addition of 0.5 ml of a pancreatin solution (Sigma) for 5-10 min at 37° C. before addition of 0.5 mnl of RPMI 1640 containing 5% dextran coated […] bovine serum in order to block enzymatic action. Cell number (0.10 ml aliquot) was determined by measurement of DNA content as previously described (Simard et al., Endocrinology 126: 3223-3231,1990).

## CC12C=CC(=O)C=C1C=CC1C2CCC2(C)C(=O)C3(CCCCC3)CC12 (stereo not shown) [CS-204]
Progesterone receptor; E^−6
  % Inhibition Progesterone Receptor E^−6: 2%
Progesterone receptor; E^−8
  % Inhibition Progesterone Receptor E^−8: 0%
ZR-75-1 cells
  ZR-75-1 Activity, Basal E^−6: 0
  ZR-75-1 Activity, Basal E^−8: 0

## CC1(C)CCC2(CCC3C4CCc5ccccc5C4CCC32C)OC1=O (stereo not shown) [CS-224]
Progesterone receptor; Table 4′, E^−6
  % Inhibition Progesterone Receptor E^−6: 5%
Progesterone receptor; Table 4′, E^−8
  % Inhibition Progesterone Receptor E^−8: 2%
ZR-75-1 cells; Table 4′
  ZR-75-1 Activity, Basal E^−6: 128%
  ZR-75-1 Activity, Basal E^−8: 16%

## CC(=O)O[C@]1(C)C(=O)CCC2C3C=C(C)C4=CC(=O)C=C[C@]4(C)C3CC[C@@]21C (stereo partly shown) [CS-237]
Progesterone receptor; E^−6
  % Inhibition Progesterone Receptor E^−6: 0%
Progesterone receptor; E^−8
  % Inhibition Progesterone Receptor E^−8: 0%

## CSCCOc1ccc2c(c1)CCC1C2CCC2(C)C1CCC21CCCC(=O)O1 [CS-242, 3-Methylthioethyloxy-1,3,5(10)-estratrien-17(R)-spiro-2′-(6′-oxo) Tetrahydropyran]
Progesterone receptor; Table 4′, E^−6
  % Inhibition Progesterone Receptor E^−6: 0%
Progesterone receptor; Table 4′, E^−8
  % Inhibition Progesterone Receptor E^−8: 0%

## CCC(=O)O[C@]1(C(C)=O)CCC2C3C=C(C)C4=CC(=O)C[C@H](C)[C@]4(C)C3CC[C@@]21C (stereo partly shown) [CS-243]
Progesterone receptor; E^−6
  % Inhibition Progesterone Receptor: 27%
Progesterone receptor; E^−8
  % Inhibition Progesterone Receptor: 0%
ZR-75-1 cells; E^−6, in %
  ZR-75-1 Activity, Basal: 0
ZR-75-1 cells; E^−8, in %
  ZR-75-1 Activity, Basal: 0

## CCCC(=O)OC1(C(C)=O)CCC2C3C=C(C)C4=CC(=O)CC(C)C4(C)C3CCC21C (stereo not shown) [CS-245]
Progesterone receptor; E^−6
  % Inhibition Progesterone Receptor: 26%
Progesterone receptor; E^−8
  % Inhibition Progesterone Receptor: 0%

## COC(=O)CCCC(=O)O[C@]1(C(C)=O)CC[C@H]2[C@@H]3C=C(C)C4=CC(=O)CC[C@]4(C)[C@H]3CC[C@@]21C [EM-1007, 6-Methyl-4,6-pregnadien-17α-ol-3,20-dione 4′-Carbomethoxybutyrate]
Progesterone receptor; E^−6
  % Inhibition Progesterone Receptor: 0%
Progesterone receptor; E^−8
  % Inhibition Progesterone Receptor: 0%
ZR-75-1 cells; E^−6, in %
  ZR-75-1 Activity, Basal: 0
ZR-75-1 cells; E^−8, in %
  ZR-75-1 Activity, Basal: −8

## CCCC(=O)O[C@]1(C)C(=O)CCC2C3C=C(C)C4=CC(=O)CC[C@]4(C)C3CC[C@@]21C (stereo partly shown) [EM-1078]
Progesterone receptor; E^−6
  % Inhibition Progesterone Receptor E^−6: 53%
Progesterone receptor; E^−8
  % Inhibition Progesterone Receptor E^−8: 0%

## C[C@]12CCC3c4cc([N+](=O)[O-])c(O)cc4CCC3C1CC[C@@]21CCCC(=O)O1 (stereo partly drawn) [EM-1124, 2-Nitro-1,3,5(10)-estraetriene-3-ol-17(R)-spiro-2′-(6′-oxo)tetrahydropyran]
Progesterone receptor; Table 4′, E^−6
  % Inhibition Progesterone Receptor E^−6: 20%
Progesterone receptor; Table 4′, E^−8
  % Inhibition Progesterone Receptor E^−8: 1%
ZR-75-1 cells; Table 4′
  ZR-75-1 Activity, Basal E^−6: 12%
  ZR-75-1 Activity, Basal E^−8: 0%

## CC1(C)CCC2(CCC3C4CCc5cc(O)c([N+](=O)[O-])cc5C4CCC32C)OC1=O (stereo not shown) [EM-1125-CS]
Progesterone receptor; Table 4′, E^−6
  % Inhibition Progesterone Receptor E^−6: 7%
Progesterone receptor; Table 4′, E^−8
  % Inhibition Progesterone Receptor E^−8: 5%
ZR-75-1 cells; Table 4′
  ZR-75-1 Activity, Basal E^−6: 34%
  ZR-75-1 Activity, Basal E^−8: 10%

## CC(=O)O[C@]1(C(=O)N(C)C)CCC2C3C=C(C)C4=CC(=O)CC[C@]4(C)C3CC[C@@]21C (stereo partly shown) [EM-1159]
Progesterone receptor; E^−6
  % Inhibition Progesterone Receptor: 4%
Progesterone receptor; E^−8
  % Inhibition Progesterone Receptor: 2%
